Measurements from PMC5218480 (PLoS ONE, 2017).

System: MV-4-11 cells
Assay: Gene expression microarray analysis (Affymetrix PrimeView) and GSEA
Type: cell-based, human
Parameters: RFU PODN (11730768_x_at) / Fold change /veh PODN (11730768_x_at) / RFU LINC00158 (11744669_a_at) / Fold change /veh LINC00158 (11744669_a_at) / RFU DUSP10 (11751237_a_at) / Fold change /veh DUSP10 (11751237_a_at) / RFU ID3 (11757404_x_at) / Fold change /veh ID3 (11757404_x_at) / RFU PLEKHG5 (11737974_s_at) / Fold change /veh PLEKHG5 (11737974_s_at) / RFU LRRC4B (11730491_at) / Fold change /veh LRRC4B (11730491_at) / RFU GIMAP4 (11747438_a_at) / Fold change /veh GIMAP4 (11747438_a_at) / RFU KRT8 (11758183_x_at) / Fold change /veh KRT8 (11758183_x_at) / RFU CNN1 (11734310_a_at) / Fold change /veh CNN1 (11734310_a_at) / RFU VPS37D (11726825_at) / Fold change /veh VPS37D (11726825_at) / RFU C10orf10 (11716522_x_at) / Fold change /veh C10orf10 (11716522_x_at) / RFU KIR2DL2 /// KIR2DL4 /// KIR2DL5A /// KIR2DL5B /// KIR2DS1 /// KIR2DS2 /// KIR2DS3 /// KIR2DS4 /// KIR3DL3 /// KIR3DL3 /// KIR3DS1 (11738374_at) / Fold change /veh KIR2DL2 /// KIR2DL4 /// KIR2DL5A /// KIR2DL5B /// KIR2DS1 /// KIR2DS2 /// KIR2DS3 /// KIR2DS4 /// KIR3DL3 /// KIR3DL3 /// KIR3DS1 (11738374_at) / RFU C1QL1 (11718748_at) / Fold change /veh C1QL1 (11718748_at) / RFU TMPRSS4 (11747572_a_at) / Fold change /veh TMPRSS4 (11747572_a_at) / RFU HAMP (11756126_x_at) / Fold change /veh HAMP (11756126_x_at) / RFU RNFT2 (11725882_a_at) / Fold change /veh RNFT2 (11725882_a_at) / RFU NR4A2 (11747474_a_at) / Fold change /veh NR4A2 (11747474_a_at) / RFU ABCC12 (11746883_a_at) / Fold change /veh ABCC12 (11746883_a_at) / RFU TMEM136 (11760407_x_at) / Fold change /veh TMEM136 (11760407_x_at) / RFU CLDN22 /// WWC2 (11732394_at) / Fold change /veh CLDN22 /// WWC2 (11732394_at) / RFU HLA-DPB1 (11760878_x_at) / Fold change /veh HLA-DPB1 (11760878_x_at) / RFU SPINT1 (11716480_a_at) / Fold change /veh SPINT1 (11716480_a_at) / RFU GAP43 (11754022_s_at) / Fold change /veh GAP43 (11754022_s_at) / RFU A4GNT (11735810_at) / Fold change /veh A4GNT (11735810_at) / RFU PRB3 (11715151_x_at) / Fold change /veh PRB3 (11715151_x_at) / RFU TUBB4B (11761932_at) / Fold change /veh TUBB4B (11761932_at) / RFU CAPN14 (11732068_a_at) / Fold change /veh CAPN14 (11732068_a_at) / RFU TMCC2 (11721928_a_at) / Fold change /veh TMCC2 (11721928_a_at) / RFU IRGQ (11745062_a_at) / Fold change /veh IRGQ (11745062_a_at) / RFU FAM174B (11720279_a_at) / Fold change /veh FAM174B (11720279_a_at) / RFU TMPRSS4 (11748680_a_at) / Fold change /veh TMPRSS4 (11748680_a_at) / RFU FAM212B (11763350_a_at) / Fold change /veh FAM212B (11763350_a_at) / RFU PLEKHG5 (11743358_a_at) / Fold change /veh PLEKHG5 (11743358_a_at) / RFU ZSCAN30 (11745921_a_at) / Fold change /veh ZSCAN30 (11745921_a_at) / RFU CMKLR1 (11741424_a_at) / Fold change /veh CMKLR1 (11741424_a_at) / RFU LOC101060620 /// MAPK8IP1 (11723275_at) / Fold change /veh LOC101060620 /// MAPK8IP1 (11723275_at) / RFU SPTSSB (11747773_x_at) / Fold change /veh SPTSSB (11747773_x_at) / RFU PRSS12 (11739890_at) / Fold change /veh PRSS12 (11739890_at) / RFU BIN1 (11741810_x_at) / Fold change /veh BIN1 (11741810_x_at) / RFU WNT11 (11732464_a_at) / Fold change /veh WNT11 (11732464_a_at) / RFU C10orf10 (11716521_a_at) / Fold change /veh C10orf10 (11716521_a_at) / RFU C5orf56 (11738089_at) / Fold change /veh C5orf56 (11738089_at) / RFU CYB561 (11721691_x_at) / Fold change /veh CYB561 (11721691_x_at) / RFU ANKRD19P (11752326_a_at) / Fold change /veh ANKRD19P (11752326_a_at) / RFU OR2T12 /// OR2T33 /// OR2T8 (11738714_s_at) / Fold change /veh OR2T12 /// OR2T33 /// OR2T8 (11738714_s_at) / RFU VCAN (11748164_a_at) / Fold change /veh VCAN (11748164_a_at) / RFU JSRP1 (11732532_at) / Fold change /veh JSRP1 (11732532_at) / RFU KRTAP10-11 (11738290_x_at) / Fold change /veh KRTAP10-11 (11738290_x_at) / RFU MYO3A (11730013_a_at) / Fold change /veh MYO3A (11730013_a_at) / RFU EBF3 (11725865_a_at) / Fold change /veh EBF3 (11725865_a_at) / RFU CAMK2N1 (11719241_x_at) / Fold change /veh CAMK2N1 (11719241_x_at) / RFU C5orf56 (11738088_a_at) / Fold change /veh C5orf56 (11738088_a_at) / RFU OLFML3 (11715873_a_at) / Fold change /veh OLFML3 (11715873_a_at) / RFU LOC100653217 /// NTM (11731650_a_at) / Fold change /veh LOC100653217 /// NTM (11731650_a_at) / RFU MAPK11 (11762145_a_at) / Fold change /veh MAPK11 (11762145_a_at) / RFU FIZ1 (11724087_x_at) / Fold change /veh FIZ1 (11724087_x_at) / RFU OASL (11726364_x_at) / Fold change /veh OASL (11726364_x_at) / RFU SOX15 (11748057_x_at) / Fold change /veh SOX15 (11748057_x_at) / RFU CD79A (11719716_a_at) / Fold change /veh CD79A (11719716_a_at) / RFU HIST1H1D (11736915_at) / Fold change /veh HIST1H1D (11736915_at) / RFU CASKIN2 (11723855_a_at) / Fold change /veh CASKIN2 (11723855_a_at) / RFU LOC730098 (11760151_x_at) / Fold change /veh LOC730098 (11760151_x_at) / RFU OR4N2 (11742367_at) / Fold change /veh OR4N2 (11742367_at) / RFU PRRT2 (11749266_a_at) / Fold change /veh PRRT2 (11749266_a_at) / RFU SNX32 (11753110_a_at) / Fold change /veh SNX32 (11753110_a_at) / RFU CDHR5 (11726645_a_at) / Fold change /veh CDHR5 (11726645_a_at) / RFU RCAN1 (11760418_a_at) / Fold change /veh RCAN1 (11760418_a_at) / RFU FAM167A (11723789_a_at) / Fold change /veh FAM167A (11723789_a_at) / RFU FAM26E (11764081_at) / Fold change /veh FAM26E (11764081_at) / RFU ISYNA1 (11749810_s_at) / Fold change /veh ISYNA1 (11749810_s_at) / RFU ACY1 (11761880_at) / Fold change /veh ACY1 (11761880_at) / RFU 11764098_at / Fold change /veh 11764098_at / RFU SAMD14 (11745864_x_at) / Fold change /veh SAMD14 (11745864_x_at) / RFU NPB (11741838_a_at) / Fold change /veh NPB (11741838_a_at) / RFU TMPRSS6 (11731388_a_at) / Fold change /veh TMPRSS6 (11731388_a_at) / RFU KRTAP10-2 (11738614_at) / Fold change /veh KRTAP10-2 (11738614_at) / RFU ARHGAP8 /// PRR5-ARHGAP8 (11727945_x_at) / Fold change /veh ARHGAP8 /// PRR5-ARHGAP8 (11727945_x_at) / RFU KRTAP5-7 /// NADSYN1 (11734609_at) / Fold change /veh KRTAP5-7 /// NADSYN1 (11734609_at) / RFU RASL12 (11751679_a_at) / Fold change /veh RASL12 (11751679_a_at) / RFU CDKN2B (11736163_a_at) / Fold change /veh CDKN2B (11736163_a_at) / RFU PRF1 (11729649_at) / Fold change /veh PRF1 (11729649_at) / RFU, ZNF638 /// ZNF638-IT1 / Fold change vs veh, ZNF638 /// ZNF638-IT1 / RFU, PANK3 / Fold change vs veh, PANK3 / RFU, SH3YL1 / Fold change vs veh, SH3YL1 / RFU, ZEB2 / Fold change vs veh, ZEB2 / RFU, NRIP1 / Fold change vs veh, NRIP1 / RFU, PTTG1IP / Fold change vs veh, PTTG1IP / RFU, CAPN2 / Fold change vs veh, CAPN2 / RFU, MED14 / Fold change vs veh, MED14 / RFU, SNORA58 / Fold change vs veh, SNORA58 / RFU, C1orf63 / Fold change vs veh, C1orf63 / RFU, LRRFIP1 / Fold change vs veh, LRRFIP1 / RFU, NDUFAF7 / Fold change vs veh, NDUFAF7 / RFU, SLC12A2 / Fold change vs veh, SLC12A2 / RFU, IBTK / Fold change vs veh, IBTK / RFU, ESF1 / Fold change vs veh, ESF1 / Fold change vs veh, TMEM50B / RFU, TAOK1 / Fold change vs veh, TAOK1 / RFU, ACBD3 / Fold change vs veh, ACBD3 / RFU, TMA16 / Fold change vs veh, TMA16 / RFU, RWDD3 / Fold change vs veh, RWDD3 / RFU, BCAT1 / Fold change vs veh, BCAT1 / RFU, EDEM3 / Fold change vs veh, EDEM3 / RFU, TMEM33 / Fold change vs veh, TMEM33 / RFU, WDR75 / Fold change vs veh, WDR75 / RFU, AHCTF1 / Fold change vs veh, AHCTF1 / RFU, TFRC / Fold change vs veh, TFRC / RFU, ZDHHC17 / Fold change vs veh, ZDHHC17 / RFU, NOM1 / Fold change vs veh, NOM1 / RFU, ARL8B / Fold change vs veh, ARL8B / RFU, ZBTB11 / Fold change vs veh, ZBTB11 / RFU, TAMM41 / Fold change vs veh, TAMM41 / RFU, KIAA1704 /// LOC100996395 / Fold change vs veh, KIAA1704 /// LOC100996395 / RFU, ING1 / Fold change vs veh, ING1 / RFU, TRMT61B / Fold change vs veh, TRMT61B / RFU, FUBP3 / Fold change vs veh, FUBP3 / RFU, TP53 / Fold change vs veh, TP53 / RFU, TNKS2 / Fold change vs veh, TNKS2 / RFU, ZFP14 / Fold change vs veh, ZFP14 / RFU, ACTR2 / Fold change vs veh, ACTR2 / RFU, PPP3R1 / Fold change vs veh, PPP3R1 / RFU, PIK3R1 / Fold change vs veh, PIK3R1 / RFU, HNRNPA1 / Fold change vs veh, HNRNPA1 / RFU, RNF170 / Fold change vs veh, RNF170 / RFU, ZNF28 / Fold change vs veh, ZNF28 / RFU, RNGTT / Fold change vs veh, RNGTT / RFU, OGT / Fold change vs veh, OGT / RFU, BRD1 / Fold change vs veh, BRD1 / RFU, MARS / Fold change vs veh, MARS / RFU, ZNF655 / Fold change vs veh, ZNF655 / RFU, FAHD1 / Fold change vs veh, FAHD1 / RFU, BDP1 / Fold change vs veh, BDP1 / RFU, LRRCC1 / Fold change vs veh, LRRCC1 / RFU, ARID1A / Fold change vs veh, ARID1A / RFU, ZNF146 / Fold change vs veh, ZNF146 / RFU, ZNF330 / Fold change vs veh, ZNF330 / RFU, GPN3 / Fold change vs veh, GPN3 / RFU, C9orf123 / Fold change vs veh, C9orf123 / RFU, N4BP2L2 / Fold change vs veh, N4BP2L2 / RFU, ARFIP1 / Fold change vs veh, ARFIP1 / RFU, FAM179B / Fold change vs veh, FAM179B / RFU, BCL10 / Fold change vs veh, BCL10 / RFU, UHRF1BP1L / Fold change vs veh, UHRF1BP1L / RFU, BET1 / Fold change vs veh, BET1 / RFU, CNOT2 / Fold change vs veh, CNOT2 / RFU, ZNF268 / Fold change vs veh, ZNF268 / Fold change vs veh, ZNF507 / RFU, DGCR2 / Fold change vs veh, DGCR2 / RFU, WDSUB1 / Fold change vs veh, WDSUB1 / Fold change vs veh, HSP90B1 /// MIR3652 / RFU, ADSS / Fold change vs veh, ADSS / RFU, GK / Fold change vs veh, GK / RFU, ZNF148 / Fold change vs veh, ZNF148 / RFU, TAF9 / Fold change vs veh, TAF9 / RFU, SLC1A5 / Fold change vs veh, SLC1A5 / RFU, SLMO2 / Fold change vs veh, SLMO2 / RFU, ABCC4 / Fold change vs veh, ABCC4 / RFU, LOC101060439 /// RAP1B / Fold change vs veh, LOC101060439 /// RAP1B / RFU, RFX7 / Fold change vs veh, RFX7 / RFU, GTPBP10 / Fold change vs veh, GTPBP10 / RFU, CNEP1R1 / Fold change vs veh, CNEP1R1 / RFU, BIVM-ERCC5 /// ERCC5 / Fold change vs veh, BIVM-ERCC5 /// ERCC5 / RFU, ILF3 / Fold change vs veh, ILF3 / RFU 11762660_at / Fold change /veh 11762660_at / RFU VCAN (11757783_s_at) / Fold change /veh VCAN (11757783_s_at) / RFU DDX43 (11728927_at) / Fold change /veh DDX43 (11728927_at) / RFU KRT8 (11758188_x_at) / Fold change /veh KRT8 (11758188_x_at) / RFU NKD1 (11759106_at) / Fold change /veh NKD1 (11759106_at) / RFU SRD5A1 (11742802_a_at) / Fold change /veh SRD5A1 (11742802_a_at) / RFU TPSAB1 /// TPSB2 (11721975_s_at) / Fold change /veh TPSAB1 /// TPSB2 (11721975_s_at) / RFU GSTM3 (11746129_a_at) / Fold change /veh GSTM3 (11746129_a_at) / RFU IL23R (11737362_x_at) / Fold change /veh IL23R (11737362_x_at) / RFU TMEM51 (11727254_a_at) / Fold change /veh TMEM51 (11727254_a_at) / RFU PIWIL2 (11732686_x_at) / Fold change /veh PIWIL2 (11732686_x_at) / RFU ORM1 (11744905_x_at) / Fold change /veh ORM1 (11744905_x_at) / RFU CCDC152 (11743942_at) / Fold change /veh CCDC152 (11743942_at) / RFU ECM1 (11717891_a_at) / Fold change /veh ECM1 (11717891_a_at) / RFU IL23R (11748794_a_at) / Fold change /veh IL23R (11748794_a_at) / RFU TNFAIP8L3 (11732012_x_at) / Fold change /veh TNFAIP8L3 (11732012_x_at) / RFU MBOAT4 (11741988_at) / Fold change /veh MBOAT4 (11741988_at) / RFU 11764193_at / Fold change /veh 11764193_at / RFU TMEM53 (11763286_at) / Fold change /veh TMEM53 (11763286_at) / RFU MAGEB2 (11727129_at) / Fold change /veh MAGEB2 (11727129_at) / RFU TMEM200A (11744735_a_at) / Fold change /veh TMEM200A (11744735_a_at) / RFU CCDC152 (11751479_a_at) / Fold change /veh CCDC152 (11751479_a_at) / RFU FAM211A (11726209_a_at) / Fold change /veh FAM211A (11726209_a_at) / RFU RGS16 (11746705_a_at) / Fold change /veh RGS16 (11746705_a_at) / RFU VCAN (11755009_s_at) / Fold change /veh VCAN (11755009_s_at) / RFU RHOB (11743442_s_at) / Fold change /veh RHOB (11743442_s_at) / RFU RGS16 (11720943_a_at) / Fold change /veh RGS16 (11720943_a_at) / RFU RGS16 (11720944_at) / Fold change /veh RGS16 (11720944_at) / RFU, VPS4B / Fold change vs veh, VPS4B / RFU, CREB1 / Fold change vs veh, CREB1 / RFU, DNAJC13 / Fold change vs veh, DNAJC13 / RFU, GNAQ / Fold change vs veh, GNAQ / RFU, CDK5R1 / Fold change vs veh, CDK5R1 / RFU, ZRANB3 / Fold change vs veh, ZRANB3 / RFU, CUL4A / Fold change vs veh, CUL4A / RFU, CCNY / Fold change vs veh, CCNY / RFU, UFL1 / Fold change vs veh, UFL1 / RFU, COG3 / Fold change vs veh, COG3 / RFU, DIAPH2 / Fold change vs veh, DIAPH2 / RFU, SKA2 / Fold change vs veh, SKA2 / RFU, AFF3 / Fold change vs veh, AFF3 / RFU, LMF1 / Fold change vs veh, LMF1 / RFU, IPO11 / Fold change vs veh, IPO11 / RFU, DFFB / Fold change vs veh, DFFB / RFU, FOXP1 / Fold change vs veh, FOXP1 / RFU, CARD8 / Fold change vs veh, CARD8 / RFU, STRN3 / Fold change vs veh, STRN3 / RFU, ADK / Fold change vs veh, ADK / RFU, RASSF2 / Fold change vs veh, RASSF2 / RFU, WIPF1 / Fold change vs veh, WIPF1 / RFU, LARP1B / Fold change vs veh, LARP1B / RFU, RASA1 / Fold change vs veh, RASA1 / RFU, RB1 / Fold change vs veh, RB1 / RFU, PPFIA1 / Fold change vs veh, PPFIA1 / RFU, MAT2A / Fold change vs veh, MAT2A / RFU, CCT5 / Fold change vs veh, CCT5 / RFU, WDR92 / Fold change vs veh, WDR92 / RFU, CUX1 / Fold change vs veh, CUX1 / RFU, TTC7A / Fold change vs veh, TTC7A / RFU, TMEM135 / Fold change vs veh, TMEM135 / RFU, DEPTOR / Fold change vs veh, DEPTOR / RFU, CPM / Fold change vs veh, CPM / RFU, DNAJB6 / Fold change vs veh, DNAJB6 / RFU, CACNA2D3 / Fold change vs veh, CACNA2D3 / RFU, DTX4 / Fold change vs veh, DTX4 / RFU, TFCP2 / Fold change vs veh, TFCP2 / RFU, GMCL1 /// GMCL1P1 / Fold change vs veh, GMCL1 /// GMCL1P1 / RFU, AEBP2 / Fold change vs veh, AEBP2 / RFU, SNHG1 /// SNORD22 /// SNORD25 /// SNORD26 /// SNORD27 /// SNORD28 /// SNORD29 /// SNORD31 / Fold change vs veh, SNHG1 /// SNORD22 /// SNORD25 /// SNORD26 /// SNORD27 /// SNORD28 /// SNORD29 /// SNORD31 / Fold change (Aza/veh), C12orf56 (ProbeSet 11735607_a_at) / Fold change (ACY-1035/veh), C12orf56 (ProbeSet 11735607_a_at) / Fold change (Aza/veh), FGFR1OP (ProbeSet 11751329_s_at) / Fold change (ACY-1035/veh), FGFR1OP (ProbeSet 11751329_s_at) / Fold change (Aza/veh), VPS36 (ProbeSet 11739960_a_at) / Fold change (ACY-1035/veh), VPS36 (ProbeSet 11739960_a_at) / RFU SYPL1 (11715823_x_at) / Fold change /veh SYPL1 (11715823_x_at) / RFU IGFBP7 (11715501_s_at) / Fold change /veh IGFBP7 (11715501_s_at) / RFU REEP3 (11722064_at) / Fold change /veh REEP3 (11722064_at) / RFU IGLL1 (11728026_x_at) / Fold change /veh IGLL1 (11728026_x_at): dose or concentration left out as unconfirmed
Settings: MV-4-11 cells, 48 hours

## Nc1ccc(-c2cccs2)cc1NC(=O)c1ccc2c(c1)cc(C1CC1)n2CCN1CCOCC1 [ACY-1035]
  RFU GAP43 (11754022_s_at): 68.94 RFU
